# Data published in patent publication US20210401821A1, “PROPHYLACTIC OR THERAPEUTIC AGENT AND MEDICINAL COMPOSITION FOR IL-31-MEDIATED DISEASE” (Kyushu University, National University Corporation, priority 2018, published 2021).
# Legend:
# wild-type C57BL/6 mice [1] = test: Scratching behavior induced by IL-31 after NK3R antagonist administration; format: in vivo, mouse; settings: 45 minutes before intradermal IL-31 (1 μg/50 μl)
# Protocol: (§1) Prior to the experiments, mice were placed in an acrylic cage (11 cm×14 cm×20 cm) for at least 1 hour to acclimatize to the environment. Subsequently, 50 μL of a pruritus-inducing substance dissolved in sterilized physiological saline was injected intradermally into shoulders of the mice, and the behavior of these mice was videotaped. The total number of scratching behavior within a specified time was determined by playing the video. During the scratching behavior of a mouse, the mouse extends its hind leg to the itchy area, tilts its head toward the hind leg, quickly turns the hind leg several times, and returns the hind leg to the ground. These series of actions were counted as one scratching behavior. As pruritus-inducing substances. IL-31 (1 μg/50 μl; PeproTech Inc.). SLIGRL-NH2 (100 μg/50 μl; Bachem Holding AG), chloroquine (100 μg/50 μl; Wako Pure Chemical Industries.), and histamine (100 μg/50 μl; Wako Pure Chemical Industries.) were used.
# (§2) In some experiments, the actions of NK3R antagonists on the scratching behavior of the mice were investigated. As compounds having activity as an NK3R antagonist or an NK3R antagonist, osanetant (Axon Medchem.), talnetant (NAMIKI SHOJI Co., Ltd.), pavinetant (NAMIKI SHOJI Co., Ltd.), fezolinetant (Haoyuan Chemexpress Co., Ltd.). SSR-146977 (Tocris Bioscience.), SSR-241586 (WuXi AppTec New Drug Development Co. Ltd.), SB-235375 (WuXi AppTec New Drug Development Co. Ltd.), and CS-003 (WuXi AppTec New Drug Development Co. Ltd.) were used. These compounds were administered to the mice in a predetermined amount per weight of each mouse 45 minutes before the intradermal injection of the pruritus-inducing substance. Osanetant was dissolved in phosphate buffered saline (PBS) containing 0.1% Tween-20 and intraperitoneally injected at 5 mg/kg. Talnetant and pavinetant were dissolved in a mixture of 10% dimethyl sulfoxide (DMSO), 40% polyethylene glycol 300, 5% Tween-80, and 45% saline and were intraperitoneally injected at 30 mg/kg. Fezolinetant was dissolved in PBS containing 10% DMSO and orally administered at 10 mg/kg. SSR-146977 was dissolved in PBS containing 0.1% ethanol and intraperitoneally injected at 0.3 mg/kg. SSR-241586 was dissolved in a 0.01% Tween-80 aqueous solution and intraperitoneally injected at 3 mg/kg. SB-235375 was dissolved in PBS and orally administered at 3 mg/kg. CS-003 was dissolved in PBS containing 5% glucose and intravenously injected at 3 mg/kg.
# (§3) Similar to osanetant, fezolinetant that is a selective antagonist of NK3R was orally administered to wild-type C57BL/6 mice, and the effect on the scratching behavior induced by IL-31, histamine, or chloroquine was analyzed.
# (§4) Furthermore, CS-003 that is an antagonist to neurokinin 3 receptor (NK3R) and also an antagonist to neurokinin 1 receptor (NK1R) and neurokinin 2 receptor (NK2R), and SSR-241586 that is an antagonist to NK3R and NK2R were administered to wild-type C57BL/6 mice, and then the effects of the compounds on the scratching behavior induced by IL-31 or chloroquine were analyzed.
# wild-type C57BL/6 mice [2] = test: Scratching behavior induced by chloroquine after NK3R antagonist administration; format: in vivo, mouse; settings: 45 minutes before intradermal chloroquine (100 μg/50 μl)
# Protocol: as §1, §2, §3, §4
# wild-type C57BL/6 mice [3] = test: Scratching behavior induced by histamine after NK3R antagonist administration; format: in vivo, mouse; settings: 45 minutes before intradermal histamine (100 μg/50 μl)
# Protocol: as §1
# In some experiments, the actions of NK3R antagonists on the scratching behavior of the mice were investigated. […]
# as §3
# Nppb mRNA = Nppb mRNA expression in stimulated DRG neurons in vitro; format: cell-based, mouse; settings: DRG neurons from wild-type C57BL/6 mice stimulated with NKB in vitro; FIG. 4(b)
# Protocol: (§5) Total RNAs were extracted from each tissue using ISOGEN (NIPPON GENE CO., LTD.). Total RNAs were treated with RNase-free DNase I (Thermo Fisher Scientific K.K.). This RNA sample was reverse transcribed using an oligo (dT) primer (v) and SuperScript III reverse transcriptase (Thermo Fisher Scientific K.K.), and amplified by PCR. Real-time PCR was performed by Cfx Connect™ Thermal Cycler (Bio-Rad Laboratories, Inc.) using SYBR Green PCR Master Mix (Applied Biosystems). The expression level of the target gene was normalized by an expression level of Hprt gene. For the analysis, CFX Manager (ver3.1) attached to a device was used.
# (§6) Changes in the expression levels of Tac2, Grp. and Nppb through administration of IL-31 or NKB were analyzed. First. DRG neurons isolated from the wild-type C57BL/6 mice were stimulated by the addition of the IL-31 protein in vitro, and the expression levels of Tac2 mRNA, Grp mRNA, and Nppb mRNA were analyzed.
# (§7) Next, DRG neurons isolated from the wild-type C57BL/6 mice were stimulated by neurokinin B (NKB) in vitro, and the expression levels of Grp mRNA and Nppb mRNA were analyzed.
# Grp mRNA = Grp mRNA expression in stimulated DRG neurons in vitro; format: cell-based, mouse; settings: DRG neurons from wild-type C57BL/6 mice stimulated with NKB in vitro; FIG. 4(b)
# Protocol: as §5, §6, §7
# Tac2−/− (Δ4) mice = test: Scratching behavior after injecting NKB into medullary cavities; format: in vivo, mouse; settings: FIG. 10(a)
# Protocol: Next, in order to identify the site where NKB was functioning. NKB was injected into medullary cavities of Tac2^−/− (Δ4) mice, and scratching behavior was analyzed.
# [4] = SSR-241586 3 mg/kg intraperitoneal, CS-003 3 mg/kg intravenous, FIGS. 16(a), 17(a)
# [5] = 30 mg/kg intraperitoneal, FIGS. 13(b), 14(b)
# [6] = 30 mg/kg intraperitoneal, FIGS. 13(a), 14(a)
compound,measurement,setting,value
COc1cc(C(=O)N2CCO[C@](CCN3CCC4(CC3)c3ccccc3C[S@+]4[O-])(c3ccc(Cl)c(Cl)c3)C2)cc(OC)c1OC [CS-003],frequency of scratching behavior induced by IL-31,wild-type C57BL/6 mice [1]; [4],suppressed
"CC[C@H](NC(=O)c1c(OCC(=O)O)c(-c2ccccc2)nc2ccccc12)c1ccccc1 [SB-235375, 2-[2-phenyl-4-[N-[1 (S)-phenylpropyl]carbamoyl]quinoline-3-yloxy]acetic acid]",frequency of scratching behavior by chloroquine,"wild-type C57BL/6 mice [2]; 3 mg/kg oral, FIG. 18(b)",did not decrease
same,frequency of scratching behavior induced by IL-31,"wild-type C57BL/6 mice [1]; 3 mg/kg oral, FIG. 18(a)",did decrease
"CN(C)C(=O)C1(N2CCCCC2)CCN(CC[C@@]2(c3ccc(Cl)c(Cl)c3)CN(C(=O)c3ccccc3)CCO2)CC1 [SSR-241586, (+)-1′-[2-[4-benzoyl-2(R)-(3,4-dichlorophenyl)morpholine-2-yl]ethyl]-N,N-dimethyl-1,4′-bipiperidin-4′-carboxamide]",frequency of scratching behavior induced by IL-31,wild-type C57BL/6 mice [1]; [4],suppressed
"Cc1nsc(-c2nnc3n2CCN(C(=O)c2ccc(F)cc2)[C@@H]3C)n1 [fezolinetant, (4-fluorophenyl)-[(8R)-8-methyl-3-(3-methyl-1,2,4-thiadiazole-5-yl)-6,8-dihydro-5H-[1,2,4]triazolo[4,3-a]pyrazine-7-yl]-methanone]",frequency of scratching behavior by chloroquine,"wild-type C57BL/6 mice [2]; fezolinetant 10 mg/kg oral, FIG. 12(c)",did not decrease
same,frequency of scratching behavior by IL-31,"wild-type C57BL/6 mice [1]; fezolinetant 10 mg/kg oral, FIG. 12(a)",decreased
same,frequency of scratching behavior by histamine,"wild-type C57BL/6 mice [3]; fezolinetant 10 mg/kg oral, FIG. 12(b)",did not decrease
"CC(=O)N(C)C1(c2ccccc2)CCN(CCC[C@]2(c3ccc(Cl)c(Cl)c3)CCCN(C(=O)c3ccccc3)C2)CC1 [osanetant, N-[1-[3-[(3R)-1-benzoyl-3-(3,4-dichlorophenyl)piperidine-3-yl)propyl)-4-phenylpiperidine-4-yl]-N-methyl acetamide]",frequency of scratching behavior by chloroquine,"wild-type C57BL/6 mice [2]; osanetant 5 mg/kg intraperitoneal, FIG. 11(e)",did not decrease
same,frequency of scratching behavior by IL-31,"wild-type C57BL/6 mice [1]; osanetant 5 mg/kg intraperitoneal, FIG. 11(c)",decreased
same,frequency of scratching behavior by histamine,"wild-type C57BL/6 mice [3]; osanetant 5 mg/kg intraperitoneal, FIG. 11(d)",did not decrease
CC[C@H](NC(=O)c1c(NS(C)(=O)=O)c(-c2ccccc2)nc2ccccc12)c1ccccc1 [pavinetant],frequency of scratching behavior by chloroquine,wild-type C57BL/6 mice [2]; [5],did not decrease
same,frequency of scratching behavior induced by IL-31,wild-type C57BL/6 mice [1]; [6],did decrease
"CC[C@H](NC(=O)c1c(O)c(-c2ccccc2)nc2ccccc12)c1ccccc1 [talnetant, N-(α-ethylbenzyl)-3-hydroxy-2-phenylquinoline-4-carboxamide]",frequency of scratching behavior by chloroquine,wild-type C57BL/6 mice [2]; [5],did not decrease
same,frequency of scratching behavior induced by IL-31,wild-type C57BL/6 mice [1]; [6],did decrease
"NKB: mature neurokinin B, neuropeptide from PPT-3 (Tac2 gene), SEQ ID NO: 2; binds neurokinin receptor 3 (DMHDFFVGLM; listed as Homo sapiens)",expression level of Nppb mRNA,Nppb mRNA,increased
same,expression level of Grp mRNA,Grp mRNA,increased
same,scratching behavior after intramedullary injection of NKB,Tac2−/− (Δ4) mice,induced the scratching behavior
